Legend:
[1] = tested on: angiogenesis model by culturing stromal cells and vascular endothlial cells (ECs) together; test: Tumor angiogenesis mediated by pericytes (stromal cells co-cultured with vascular endothlial cells); type: cell-based; conditions: for Length of the formed vessel network (Total Tube Length, TL, n = 8): control 436; for effect on tumor angiogenesis mediated by pericytes: concentrations of 50-100 μM, result in words
Procedure: We constructed an angiogenesis model by culturing stromal cells and vascular endothlial cells (ECs) together. Stromal cells and endothlial cells were graciously provided by Vascular Biology Medical Center of Medical School of the State University in Indiana. The stromal cells were implanted into a cell culture dish, maintaining cell density of 6×10^6/cm^2, and ECs were implanted on the trophoblast cells of the stromal cells after the stromal cells were incubated in the EBM-2/5% FBS culture medium for 3 hours, with cell density of ECs reaching 1×10^6/cm^2. The two kinds of cells were co-cultured in EBM-2/5% FBS culture medium for six days, then the formation of tubular vessels was observed, and EC vessels were labeled through CD31 fluorescence staining and horseradish peroxidase staining.
Then, the inhibition of compounds phenethyl caffeate and 3,4-diacetyl phenethyl caffeate with concentrations of 50-100 μM on tumor angiogenesis mediated by pericytes was studied.

[2] = tested on: vessel network model formed by culturing adult stem cells and vascular endothlial cells together; test: Formation of vessel network in vitro (adult stem cells co-cultured with vascular endothlial cells); type: cell-based, human; conditions: for lengths of the formed vessel networks (Total Tube Length, TL): co-culture six days
Procedure: First, we constructed a vessel network model formed by culturing adult stem cells and vascular endothlial cells together. Adult stem cells have the function of differentiating into pericytes, and can secrete cytokines required for angiogenesis to promote the formation of new vessels. The isolated and cultured adult stem cells were cultured using EGM medium for 3-6 generations to be used. The isolated and cultured human endothlial cells were derived from the cord blood of healthy infants (38-40 weeks), in which monocytes were removed by gradient centrifugation, and the cells were cultured in EGM medium to obtain primary vascular endothlial cells, and 4-8 generations were applied after passage. The adult stem cells were implanted into a cell culture dish, maintaining cell density of 6×10^6/cm^2, and the vascular endothlial cells were implanted on the trophoblast cells of the adult stem cells after the adult stem cells were incubated at 37° C., 5% CO2 for 3 hours, and the cell density of the vascular endothlial cells reached 1×10^6/cm^2. The two kinds of cells were co-cultured for six days, then the formation of tubular networks was observed, and the new vessel networks were labeled through CD31 fluorescence staining and horseradish peroxidase staining.
Different doses of 3,4-diacetyl phenethyl caffeate (prepared according to conventional chemical method by the Laboratory of Peking University Health Science center) were co-cultured with the in vitro vessel network system. […] However, there is no significant difference among the total numbers of ECs of CD31+ in respective groups. The total numbers of ECs in the control group, DMSO group, 5 μm group, 10 μm group, 20 μm group, 50 μm group and 100 μm group are 7.52±1.24/mm^2, 8.66±1.31/mm^2, 8.87±1.59/mm^2, 6.0±1.72/mm^2, 6.22±1.42/mm^2, […], 8.33±0.79/mm^2 respectively, and there is no significant difference among respective groups through analysis.

[3] = tested on: human hepatocellular carcinoma BEL-7402 cell lines; test: Growth of tumors of BALB/c nude mice inoculated with BEL-7402 cells in vivo; conditions: 20 mg/kg by gavage, 3 weeks
Procedure: First, 1×10^6 cells of human hepatocellular carcinoma BEL-7402 cell lines were injected subcutaneously (sc) into the forelimbs of BALB/c male nude mice, and the mice with tumor were killed after the tumor was formed, the skin of the mice was cut off, and the complete tumor tissue was separated and removed, and then immersed into physiological saline and cut into pieces with diameter of 2 mm. The tumor tissue pieces were implanted subcutaneously into the forelimbs of nude mice in another group for drug experiments. The nude mice with tumor were randomly divided equally into an experimental group and control group, with 10 mice in each group. […] Experimental data, such as tumor size (i.e., long diameter a and short diameter b), experimental animal weight (g), etc., were recorded regularly, and photographs were taken. Measurement result was recorded every time, and the tumor volume and the ratio of tumor volume to tumor weight were calculated for each animal based on the measurement results.
Formula for calculating the tumor volume is: v=a×b2/2 (a represents the long diameter of the tumor and b represents the short diameter of the tumor, which are in unit of mm; and V is calculated in unit of mm^3). […]

## CC(=O)Oc1ccc(/C=C/C(=O)OCCc2ccccc2)cc1OC(C)=O [3,4-diacetyl phenethyl caffeate]
[1]; 50 μM
  Length of the formed vessel network (Total Tube Length, TL, n = 8): 114 ± 20
[1]; 100 μM
  Length of the formed vessel network (Total Tube Length, TL, n = 8): 20 ± 11
[1]
  effect on tumor angiogenesis mediated by pericytes: inhibitory effect
[1]; listed as diacetyl phenethyl caffeate
  effect on tumor angiogenesis mediated by pericytes: significant inhibitory effect
[2]; 50 μM group
  numbers of branchs (NB) of the vessels: 0.13±0.026 /mm^2
  lengths of the formed vessel networks (Total Tube Length, TL): 0.084±0.032 mm/mm^2
[2]; 5 μm group
  numbers of branchs (NB) of the vessels: 6.12±0.48 /mm^2
  total numbers of ECs (CD31+): 8.87±1.59 /mm^2
  lengths of the formed vessel networks (Total Tube Length, TL): 2.802±0.212 mm/mm^2
[2]; 10 μm group
  numbers of branchs (NB) of the vessels: 1.55±0.17 /mm^2
  total numbers of ECs (CD31+): 6.0±1.72 /mm^2
  lengths of the formed vessel networks (Total Tube Length, TL): 0.874±0.117 mm/mm^2
[2]; 20 μm group
  numbers of branchs (NB) of the vessels: 0.50±0.063 /mm^2
  total numbers of ECs (CD31+): 6.22±1.42 /mm^2
  lengths of the formed vessel networks (Total Tube Length, TL): 0.337±0.89 mm/mm^2
[2]; 100 μm group
  numbers of branchs (NB) of the vessels: 0.04±0.001 /mm^2
  total numbers of ECs (CD31+): 8.33±0.79 /mm^2
  lengths of the formed vessel networks (Total Tube Length, TL): 0.0054±0.002 mm/mm^2
[2]; result in words
  effect on the formation of vessel networks in vitro: inhibitory effect
[3]; result in words
  effect on the growth of tumors: inhibitory effect
[3]; six days every week, FIG. 2
  average tumor volume of the mice: maintained at the original level, with no significant changes

## O=C(/C=C/c1ccc(O)c(O)c1)OCCc1ccccc1 [phenethyl caffeate]
[1]; 50 μM
  Length of the formed vessel network (Total Tube Length, TL, n = 8): 332 ± 24
[1]; 100 μM
  Length of the formed vessel network (Total Tube Length, TL, n = 8): 314 ± 27
[1]
  effect on tumor angiogenesis mediated by pericytes: no inhibitory effect

From patent publication US9532967B2, “Use of phenethyl caffeate derivatives in the preparation of a medicament against tumor angiogenesis” (priority 2010, dated 2017)
